{"source": "patent US20030077289A1", "about": "“Use of cell-penetrating peptides to generate antitumor immunity” (priority 2001, published 2003)", "key": {"B16 tumor": {"system": "B16 tumor", "conditions": "Schreurs et al., 2000; 9-mer versus 8-mer; cited from earlier work"}, "mature DCs": {"system": "mature DCs", "test": "Entry of fluorescein-labeled peptides into mature DCs (fluorescence microscopy)", "format": "cell-based, C57BL/6 mouse", "description": "1A) Peptide sequences for cell-penetrating peptide (CPP1), TRP-2 and control peptides. B) Fluorescence and phase-contrast microscopy of DC incubated with various peptide-FITC (40×magnification). DCs incubated with PBS served as a control. 1C) DCs incubated with CPP1-TRP2-FITC and viewed by phase-contrast or fluorescence microscopy at 60×magnification. Representative examples of DC/CPP1-TRP2-FITC are shown. The penetrating fluorescent peptide was localized in both the cytoplasm as well as the cell nucleus. 1D) T cell response to DCs loaded with each peptide (solid circle for CPP1-TRP2, open circle for TRP2, and open triangle for CPP1-βgal) at different time points after peptide pulsing. GM-CSF release from T cells was determined by ELISA.\nDendritic Cell Preparation and Analysis. Mouse immature and mature DCs were derived from C57BL/6 bone marrow as previously described (Labeur et al., 1999; Specht et al., 1997). Phenotype and mixed leukocyte reaction activity of DCs were analyzed according to the protocol described (Specht et al., 1997). Briefly, immature DCs were generated in the presence of murine GM-CSF without transfer steps. The loosely adherent immature DCs were harvested on day 5 and used for experiments. Mature DCs were generated in the presence of recombinant GM-CSF and 1000 U/ml of IL-4 (Peprotech, Rocky Hill, N.J.). […]"}, "CD4+ T cells": {"system": "CD4+ T cells", "test": "Peptide-specific CD4+ T cell activity", "format": "cell-based"}}, "note": "Residues, ends and D or L forms follow the SMILES beside them.", "data": [{"compound": "CC(C)C[C@H](NC(=O)[C@H](Cc1c[nH]c2ccccc12)NC(=O)[C@@H](NC(=O)[C@H](Cc1ccccc1)NC(=O)[C@H](Cc1ccccc1)NC(=O)[C@H](CC(=O)O)NC(=O)[C@H](Cc1ccc(O)cc1)NC(=O)[C@@H](N)C(C)C)C(C)C)C(=O)O", "note": "[TRP2 (VYDFFVWL 8-mer), VYDFFVWL] (H-VYDFFVWL-OH)", "values": [{"measurement": "CTL activity in vitro after multiple immunization", "setting": "B16 tumor", "value": "comparable"}]}, {"compound": "AAVLLPVLLAAPSVYDFFVWL [CPP1-TRP2, TRP2 peptide covalently linked to cell-penetrating peptide CPP1 (21-mer)]", "values": [{"measurement": "intracellular localization of peptide in DCs", "setting": "mature DCs; fluorescein-labeled peptide, mature DC", "value": "translocated and accumulated in the cytoplasm as well as the cell nucleus"}, {"measurement": "internalization of peptide into mature DCs", "setting": "mature DCs; peptide labeled at N-terminus with fluorescein, incubated with mature DC", "value": "efficiently internalized"}, {"measurement": "peptide-specific CD4+ T cell activity", "setting": "CD4+ T cells", "value": "not detected"}]}, {"compound": "SVYDFFVWL [TRP2, reference compound]", "values": [{"measurement": "peptide-specific CD4+ T cell activity", "setting": "CD4+ T cells", "value": "not detected"}]}]}
